The record followed here is ChEMBL document CHEMBL1125938, “A novel targeted delivery system utilizing a cephalosporin-oncolytic prodrug activated by an antibody -lactamase conjugate for the treatment of cancer” (Bioorg Med Chem Lett, 1991).

Values after ≈ are worked out from the molar mass of the structure shown. A value given as a limit tells only on which side of the number the result lay.

For experiment [1], the system named is LS174T. The experiment in a line: Compound was evaluated for in vitro cytotoxicity after 48 hour, against CEA-bearing LS174T human colon carcinoma cells, in absence of beta-L-CEM 231 conjugate. The class given is functional, cell-based.
The test system of experiment [2] is LS174T. The experiment in a line: Compound was evaluated for in vitro cytotoxicity after 6 hour, against CEA-bearing LS174T human colon carcinoma cells, in absence of beta-L-CEM 231 conjugate. It is filed as functional, cell-based.

Turning to `CC[C@]1(O)C[C@@H]2CN(CCc3c([nH]c4ccccc34)[C@@](C(=O)OC)(c3cc4c(cc3OC)N(C)C3[C@]45CCN4CC=C[C@@](CC)([C@@H](O)[C@]3(O)C(=O)NCCS)[C@H]45)C2)C1` (stereo not given in full), the IC50 is below 0.001 µg/mL in the experiment with LS174T [1] and 0.26 µg/mL (≈ 0.319 µM) in the experiment on LS174T [2] (Homo sapiens, LS174T, 6 h, read-out: IC50).
For the molecule `CC[C@]1(O)C[C@@H]2CN(CCc3c([nH]c4ccccc34)[C@@](C(=O)OC)(c3cc4c(cc3OC)N(C)C3[C@]45CCN4CC=C[C@@](CC)([C@@H](O)[C@]3(O)C(=O)NCCSCC3=C(C(=O)O)N6C(=O)[C@@H](NC(=O)Cc7cccs7)[C@H]6SC3)[C@H]45)C2)C1` (single isomer, unassigned; (-)), the results for the IC50 with LS174T [1] and in the experiment with LS174T [2] (ls174t) were below 0.001 µg/mL and 2.15 µg/mL (≈ 1.87 µM), respectively.
Molecule `CC[C@]1(O)C[C@@H]2CN(CCc3c([nH]c4ccccc34)[C@@](C(=O)OC)(c3cc4c(cc3OC)N(C)C3[C@]45CCN4CC=C[C@@](CC)([C@@H](O)[C@]3(O)C(=O)NCCSCC3=C(C(=O)O)N6C(=O)[C@@H](NC(=O)Cc7cccs7)[C@H]6SC3)[C@H]45)C2)C1` (single isomer, unassigned; (+)) displayed an IC50 in the experiment with LS174T [2] (ls174t) of 0.26 µg/mL (≈ 0.226 µM).

Usually IC50 stands for the concentration that inhibits the measured activity by half.
